What was measured:
Format in all cases: in vivo
[1] = test system: rice (Oryra sativa); experiment: Test B flooded paddy test; details: Oryza sativa, 250 g ai/ha, Flood; 0 to 100 scale where 0 is no effect and 100 is complete control; read-out: Rice plant response rating
In short: (§1)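 Flooding to 3 cm over soil accompanied treatment, which consisted of adding compound to the standing water around 2-leaf plants; depth was then maintained. Visual assessment versus controls followed at 13 to 15 d (scale 0–100, 0 meaning no effect).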

[2] = test system: barnyardgrass (Echinochloa crus-galli); experiment: Test B flooded paddy test; details: Echinochloa crus-galli, 250 g ai/ha, Flood; 0 to 100 scale where 0 is no effect and 100 is complete control; read-out: Barnyardgrass plant response rating
In short: as §1

[3] = test system: sedge, umbrella (small-flower umbrella sedge, Cyperus difformis); experiment: Test B flooded paddy test; details: Cyperus difformis, 250 g ai/ha, Flood; 0 to 100 scale where 0 is no effect and 100 is complete control; read-out: Sedge, Umbrella plant response rating
In short: as §1

[4] = test system: ducksalad (Heteranthera limosa); experiment: Test B flooded paddy test; details: Heteranthera limosa, 250 g ai/ha, Flood; 0 to 100 scale where 0 is no effect and 100 is complete control; read-out: Ducksalad plant response rating
In short: as §1

[5] = test system: ryegrass, Italian (Italian ryegrass, Lolium multiflorum); experiment: Test A preemergence; details: Lolium multiflorum, pre-emergence, 240 h, 0 to 100 scale where 0 is no effect and 100 is complete control, read-out: Ryegrass, Italian plant response rating
In short: (§2)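 Compounds were formulated in a non-phytotoxic solvent mixture with surfactant and applied as a preemergence directed soil spray after seeding, or sprayed postemergence over plants 2 to 10 cm tall at the one- to two-leaf stage. Evaluation after about 10 d compared treated with untreated controls, using a scale from 0 (no effect) to 100 (complete control).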

[6] = test system: barnyardgrass (Echinochloa crus-galli); experiment: Test A preemergence; details: Echinochloa crus-galli, pre-emergence, 240 h, 0 to 100 scale where 0 is no effect and 100 is complete control, read-out: Barnyardgrass plant response rating
In short: as §2

[7] = test system: giant foxtail (Setaria faberii); experiment: Test A preemergence; details: Setaria faberi, pre-emergence, 240 h, 0 to 100 scale where 0 is no effect and 100 is complete control, read-out: Foxtail, Giant plant response rating
In short: as §2

[8] = test system: ragweed (common ragweed, Ambrosia elatior); experiment: Test A preemergence; details: Ambrosia artemisiifolia, pre-emergence, 240 h, 0 to 100 scale where 0 is no effect and 100 is complete control, read-out: Ragweed plant response rating
In short: as §2

[9] = test system: pigweed (Amaranthus retroflexus); experiment: Test A preemergence; details: Amaranthus retroflexus, pre-emergence, 240 h, 0 to 100 scale where 0 is no effect and 100 is complete control, read-out: Pigweed plant response rating
[10] = test system: Kochia (Kochia scoparia); experiment: Test A preemergence; details: Bassia scoparia, pre-emergence, 240 h, 0 to 100 scale where 0 is no effect and 100 is complete control, read-out: Kochia plant response rating
In short: as §2

[11] = test system: ryegrass, Italian (Italian ryegrass, Lolium multiflorum); experiment: Test A postemergence; details: Lolium multiflorum, post-emergence, 240 h
In short: as §2

[12] = test system: blackgrass (Alopecurus myosuroides); experiment: Test A postemergence; details: Alopecurus myosuroides, post-emergence, 240 h
In short: as §2

[13] = test system: barnyardgrass (Echinochloa crus-galli); experiment: Test A postemergence; details: Echinochloa crus-galli, post-emergence, 240 h
In short: as §2

[14] = test system: giant foxtail (Setaria faberii); experiment: Test A postemergence; details: Setaria faberi, post-emergence, 240 h
In short: as §2

[15] = test system: corn (Zea mays); experiment: Test A postemergence; details: Zea mays, post-emergence, 240 h
In short: as §2

[16] = test system: ragweed (common ragweed, Ambrosia elatior); experiment: Test A postemergence; details: Ambrosia artemisiifolia, post-emergence, 240 h
In short: as §2

[17] = test system: pigweed (Amaranthus retroflexus); experiment: Test A postemergence; details: Amaranthus retroflexus, post-emergence, 240 h
In short: as §2

[18] = test system: Kochia (Kochia scoparia); experiment: Test A postemergence; details: Bassia scoparia, post-emergence, 240 h
In short: as §2

[19] = test system: Galium (catchweed bedstraw, Galium aparine); experiment: Test A postemergence; details: Galium, post-emergence, 240 h
In short: as §2

[20] = test system: wheat (Triticum aestivum); experiment: Test A postemergence; details: Triticum aestivum, post-emergence, 240 h
In short: as §2

[21] = 125 g ai/ha, preemergence, approx. 10 d

CN1CC(c2cccc(C(F)(F)F)c2)C(C(=O)Nc2ccccc2C(C)(C)O)C1=O (stereo not drawn) [Compound 1146]
50%: pest or weed control at 250 g/ha [3] | pest or weed control at 31 g/ha ([6]; 31 g ai/ha, Preemergence)
45%: pest or weed control at 250 g/ha [2]
20%: pest or weed control at 31 g/ha ([7]; 31 g ai/ha, Preemergence) | pest or weed control at 125 g/ha ([14]; 125 g ai/ha, postemergence, visual injury on 0 to 100 scale (0 no effect, 100 complete control), approx. 10 d, read-out: Foxtail, Giant plant response rating)
80%: pest or weed control at 125 g/ha [7, 21]
40%: pest or weed control at 125 g/ha ([13]; 125 g ai/ha, postemergence, visual injury on 0 to 100 scale (0 no effect, 100 complete control), approx. 10 d, read-out: Barnyardgrass plant response rating)
0%: pest or weed control at 250 g/ha [1] | pest or weed control at 250 g/ha [4] | pest or weed control at 31 g/ha ([5]; 31 g ai/ha, Preemergence) | pest or weed control at 31 g/ha ([8]; 31 g ai/ha, Preemergence) | pest or weed control at 125 g/ha [8, 21] | pest or weed control at 31 g/ha ([9]; 31 g ai/ha, Preemergence) | pest or weed control at 125 g/ha [9, 21] | pest or weed control at 31 g/ha ([10]; 31 g ai/ha, Preemergence) | pest or weed control at 125 g/ha [10, 21] | pest or weed control at 125 g/ha ([11]; 125 g ai/ha, postemergence, visual injury vs untreated controls after approx. 10 d, 0 = no effect, 100 = complete control, read-out: Ryegrass, Italian plant response rating (0 to 100 scale)) | pest or weed control at 31 g/ha ([11]; Postemergence, 31 g ai/ha, visual injury after approx. 10 d, 0 to 100 scale, 0 no effect, 100 complete control, read-out: Plant response rating, Ryegrass, Italian) | pest or weed control at 125 g/ha ([12]; 125 g ai/ha, postemergence, visual injury on 0 to 100 scale (0 no effect, 100 complete control), approx. 10 d, read-out: Blackgrass plant response rating) | pest or weed control at 31 g/ha ([12]; Postemergence, 31 g ai/ha, visual injury after approx. 10 d, 0 to 100 scale, 0 no effect, 100 complete control, read-out: Plant response rating, Blackgrass) | pest or weed control at 31 g/ha ([13]; Postemergence, 31 g ai/ha, visual injury after approx. 10 d, 0 to 100 scale, 0 no effect, 100 complete control, read-out: Plant response rating, Barnyardgrass) | pest or weed control at 31 g/ha ([14]; Postemergence, 31 g ai/ha, visual injury after approx. 10 d, 0 to 100 scale, 0 no effect, 100 complete control, read-out: Plant response rating, Foxtail, Giant) | Corn plant response rating (crop injury, 0 = no effect, 100 = complete kill) at 31 g/ha ([15]; Postemergence, 31 g ai/ha, visual injury after approx. 10 d, 0 to 100 scale, 0 no effect, 100 complete control) | pest or weed control at 125 g/ha ([16]; 125 g ai/ha, postemergence, visual injury vs untreated controls after approx. 10 d, 0 = no effect, 100 = complete control, read-out: Ragweed plant response rating (0 to 100 scale)) | pest or weed control at 31 g/ha ([16]; Postemergence, 31 g ai/ha, visual injury after approx. 10 d, 0 to 100 scale, 0 no effect, 100 complete control, read-out: Plant response rating, Ragweed) | pest or weed control at 125 g/ha ([17]; 125 g ai/ha, postemergence, visual injury vs untreated controls after approx. 10 d, 0 = no effect, 100 = complete control, read-out: Pigweed plant response rating (0 to 100 scale)) | pest or weed control at 31 g/ha ([17]; Postemergence, 31 g ai/ha, visual injury after approx. 10 d, 0 to 100 scale, 0 no effect, 100 complete control, read-out: Plant response rating, Pigweed) | pest or weed control at 125 g/ha ([18]; 125 g ai/ha, postemergence, visual injury on 0 to 100 scale (0 no effect, 100 complete control), approx. 10 d, read-out: Kochia plant response rating) | pest or weed control at 31 g/ha ([18]; Postemergence, 31 g ai/ha, visual injury after approx. 10 d, 0 to 100 scale, 0 no effect, 100 complete control, read-out: Plant response rating, Kochia) | pest or weed control at 125 g/ha ([19]; 125 g ai/ha, postemergence, visual injury on 0 to 100 scale (0 no effect, 100 complete control), approx. 10 d, read-out: Galium plant response rating) | pest or weed control at 31 g/ha ([19]; Postemergence, 31 g ai/ha, visual injury after approx. 10 d, 0 to 100 scale, 0 no effect, 100 complete control, read-out: Plant response rating, Galium) | plant injury at 125 g/ha ([20]; 125 g ai/ha, postemergence, visual injury vs untreated controls after approx. 10 d, 0 = no effect, 100 = complete control, read-out: Wheat plant response rating (0 to 100 scale)) | plant injury at 31 g/ha ([20]; Postemergence, 31 g ai/ha, visual injury after approx. 10 d, 0 to 100 scale, 0 no effect, 100 complete control, read-out: Plant response rating, Wheat)
30%: pest or weed control at 125 g/ha [5, 21] | plant injury at 125 g/ha ([15]; 125 g ai/ha, postemergence, visual injury on 0 to 100 scale (0 no effect, 100 complete control), approx. 10 d, read-out: Corn plant response rating)
70%: pest or weed control at 125 g/ha [6, 21]
